We go through 31 compounds from patent publication US20070129367A1, “Pyridine derivatives as cb2 receptor modulators” (priority 2002, published 2007).

The assay deals with T1, human cannabinoid CB2 receptor (Homo sapiens, UniProt P34972).
T1 construct: expressed in transfected cells; host or cells: Saccharomyces cerevisiae strain MMY23 (cassette integrated at the ura3 locus, GPD promoter)
Kind of assay: Cannabinoid CB2 receptor agonist activity in yeast (Saccharomyces cerevisiae) cells expressing the receptor, FDGlu fluorescence readout.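 As to Emax: percent of the maximal response of the reference agonist HU210.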 Format: cell-based. As to conditions: for Emax: read-out: efficacy (Emax) at the cloned human cannabinoid CB2 receptor. The method, then: Determination of Cannabinoid CB2 Receptor Agonist Activity
The cannabinoid CB2 receptor agonist activity of the compounds of formula (I) was determined in accordance with the following experimental method.
Yeast (Saccharomyces cerevisiae) cells expressing the human cannabinoid CB2 receptor were generated by integration of an expression cassette into the ura3 chromosomal locus of yeast strain MMY23. This cassette consisted of DNA sequence encoding the human CB2 receptor flanked by the yeast GPD promoter to the 5′ end of CB2 and a yeast transcriptional terminator sequence to the 3′ end of CB2. MMY23 expresses a yeast/mammalian chimeric G-protein alpha subunit in which the C-terminal 5 amino acids of Gpa1 are replaced with the C-terminal 5 amino acids of human Gαi3 (as described in Brown et aL (2000), Yeast 16:11-22). Cells were grown at 30° C. in liquid Synthetic Complete (SC) yeast media (Guthrie and Fink (1991), Methods in Enzymology, Vol. 194) lacking uracil, tryptophan, adenine and leucine to late logarithmic phase (approximately 6 OD600/ml).
Agonists were prepared as 10 mM stocks in DMSO. […] Agonist solutions in DMSO (1% final assay volume) were transferred into black, clear bottom, microtitre plates from NUNC (96- or 384-well). […] This mixture (50 ul per well for 384-well plates, 200 ul per well for 96-well plates) was added to agonist in the assay plates (Multidrop 384, Labsystems). After incubation at 30° C. for 24 hours, fluorescence resulting from degradation of FDGlu to fluorescein due to exoglucanase, an endogenous yeast enzyme produced during agonist-stimulated cell growth, was determined using a Spectrofluor microtitre plate reader (Tecan; excitation wavelength: 485 nm; emission wavelength: 535 nm). Fluorescence was plotted against compound concentration and iteratively curve fitted using a four parameter fit to generate a concentration effect value. […] Equieffective molar ratio (EMR) values were calculated from the equation EMR=EC50 [compound X]/EC50 [HU210]
Where EC50 [compound X] is the EC50 of compound X and EC50 [HU210] is the EC50 of HU210.

[1] abbreviates: agonist activity, yeast cells, 24 hours at 30° C., read-out: EC50 at the cloned human cannabinoid CB2 receptor.

Like-named read-outs stand apart in the source and are kept apart here.

T1 sequence (P34972 whole entry): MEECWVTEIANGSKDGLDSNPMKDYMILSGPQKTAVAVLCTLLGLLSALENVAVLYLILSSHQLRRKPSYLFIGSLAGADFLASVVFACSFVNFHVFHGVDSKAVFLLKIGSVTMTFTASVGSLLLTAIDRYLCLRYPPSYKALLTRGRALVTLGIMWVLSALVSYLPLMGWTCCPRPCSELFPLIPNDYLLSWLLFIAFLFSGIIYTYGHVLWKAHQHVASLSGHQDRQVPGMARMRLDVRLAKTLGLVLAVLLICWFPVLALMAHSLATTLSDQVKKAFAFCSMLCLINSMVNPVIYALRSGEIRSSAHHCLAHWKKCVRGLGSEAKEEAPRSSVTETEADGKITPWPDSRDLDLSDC

As to `Cc1ccc(Cl)cc1Nc1cc(C(F)(F)F)c(C(=O)NCc2ccncc2)cn1` [Example 57, N-(Pyridin-4-ylmethyl)-6-(2-methyl-5-chloro-phenylamino)-4-trifluoromethyl-nicotinamide], the EC50 was less than 300 nM and the Emax was more than 50%. For `CC(C)c1cc(Nc2ccc(C#N)c(Cl)c2)ncc1C(=O)NCc1ccc(F)cc1` [Example 23, 6-(3-Chloro-4-cyano-phenylamino)-N-(4-fluoro-benzyl)-4-isopropyl-nicotinamide] the same measures were less than 300 nM and more than 50%. For `O=C(NCc1ccc(F)cc1)c1cnc(Nc2cc(Cl)cc(Cl)c2)cc1C(F)(F)F` [Example 53] the same measures were less than 300 nM and more than 50%. For `CC(C)c1cc(Nc2cccc(Cl)c2F)ncc1C(=O)NCc1ccc(F)cc1` [Example 26, 6-(3-Chloro-2-fluoro-phenylamino)-N-(4-fluoro-benzyl)-4-isopropyl-nicotinamide] the same measures were 300 to 1000 nM and more than 50%. Regarding `CC(C)c1cc(Nc2cccc(C#N)c2)ncc1C(=O)NCc1ccc(F)cc1` [Example 19, 6-(3-Cyano-phenylamino)-N-(4-fluoro-benzyl)-4-isopropyl-nicotinamide], the EC50 under setting [1] was less than 300 nM.

`O=C(NCc1ccncc1)c1ccc(Nc2cccc(Cl)c2)nc1C(F)(F)F` [Example 78, 6-(3-Chloro-phenylamino)-N-(pyridin-4-ylmethyl)-2-trifluoromethyl-nicotinamide]: the EC50 was less than 300 nM and the Emax is more than 50%. Regarding `O=C(NCc1ccnc(F)c1)c1cnc(Nc2cccc(Cl)c2Cl)cc1C(F)(F)F` [Example 50, N-(2-Fluoro-pyridin-4-ylmethyl)-6-(2,3-dichloro-phenylamino)-4-trifluoromethyl-nicotinamide], the EC50 is less than 300 nM and the Emax was more than 50%. Turning to `CC(C)c1cc(Nc2ccc(F)cc2Cl)ncc1C(=O)NCc1ccc(F)cc1` [Example 71, 6-(2-Chloro-4-fluoro-phenylamino)-N-(4-fluoro-benzyl)-4-isopropyl-nicotinamide], the EC50 was less than 300 nM and the Emax is more than 50%.

`O=C(NCc1ccc(F)cc1)c1cnc(Nc2cccc(Cl)c2)cc1C(F)(F)F` [Example 44, N-(4-Fluoro-benzyl)-6-(3-chloro-phenylamino)-4-trifluoromethyl-nicotinamide]: the EC50 is less than 300 nM and the Emax was more than 50%. With `CC(C)c1cc(Nc2cccc(Cl)c2)ncc1C(=O)NCc1ccc(C#N)cc1` [Example 5, 6-(3-Chloro-phenylamino)-N-(4-cyano-benzyl)-4-isopropyl-nicotinamide], the EC50 lay in the range of 300 to 1000 nM and the Emax was more than 50%. For `CC(C)c1cc(Nc2ccc(Cl)cc2F)ncc1C(=O)NCc1ccc(F)cc1` [Example 20, 6-(4-Chloro-2-fluoro-phenylamino)-N-(4-fluoro-benzyl)-4-isopropyl-nicotinamide] the same measures were less than 300 nM and more than 50%. For `O=C(NCc1ccnc(F)c1)c1cnc(Nc2cc(Cl)cc(Cl)c2)cc1C(F)(F)F` [Example 54, N-(2-Fluoro-pyridin-4-ylmethyl)-6-(3,5-dichloro-phenylamino)-4-trifluoromethyl-nicotinamide], in that order: less than 300 nM and more than 50%. For `Cc1cccc(Nc2cc(C(C)C)c(C(=O)NCc3ccc(F)cc3)cn2)c1C#N` [Example 16, 6-(2-Cyano-3-methyl-phenylamino)-N-(4-fluoro-benzyl)-4-isopropyl-nicotinamide], in that order: 300 to 1000 nM and more than 50%.

As for `O=C(NCc1ccc(F)cc1)c1cnc(Nc2ccc(Cl)c(Cl)c2)cc1C(F)(F)F` [Example 55, N-(4-Fluoro-benzyl)-6-(3,4-dichloro-phenylamino)-4-trifluoroinethyl-nicotinainide], the EC50 was less than 300 nM and the Emax is more than 50%.

Take `CC(C)c1cc(Nc2cccc(Cl)c2)ncc1C(=O)NCc1ccc(F)cc1` [Example 3, 6-(3-Chlorophenylamino)-N-(4-fluorobenzyl)-4-isopropyl-nicotinamide]: the Emax was more than 50%. For `Cc1c(Br)cccc1Nc1cc(C(C)C)c(C(=O)NCc2ccc(F)cc2)cn1` [Example 27, 6-(3-Bromo-2-methyl-phenylamino)-N-(4-fluoro-benzyl)-4-isopropyl-nicotinamide], the EC50 lay in the range of 300 to 1000 nM and the Emax was more than 50%. For `CC(C)c1cc(Nc2ccc(Br)cc2Cl)ncc1C(=O)NCc1ccc(F)cc1` [Example 21, 6-(4-Bromo-2-chloro-phenylamino)-N-(4-fluoro-benzyl)-4-isopropyl-nicotinamide] the same measures were less than 300 nM and more than 50%. For the compound `CC(C)c1cc(Nc2ccc(Br)c(F)c2)ncc1C(=O)NCc1ccc(F)cc1` [Example 24, 6-(4-Bromo-3-fluoro-fluoro-benzyl)-4-phenylamino)-N-(4-isopropyl-nicotinamide], under setting [1], the EC50 is less than 300 nM. On to `CC(C)c1cc(Nc2ccc(Cl)c(Cl)c2)ncc1C(=O)NCc1ccc(F)cc1` [Example 32, 6-(3,4-Dichloro-phenylamino)-N-(4-fluoro-benzyl)-4-isopropyl-nicotinamide], for which the EC50 was 300 to 1000 nM and the Emax was more than 50%. For `Cc1c(Cl)cccc1Nc1cc(C(C)C)c(C(=O)NCc2ccc(F)cc2)cn1` [Example 28, 6-(3-Chloro-2-methyl-phenylamino)-N-(4-fluoro-benzyl)-4-isopropyl-nicotinamide], in that order: 300 to 1000 nM and more than 50%. On to `CC(C)c1cc(Nc2cccc(OC(F)(F)F)c2)ncc1C(=O)NCc1ccc(F)cc1` [Example 25, N-(4-Fluoro-benzyl)-4-isopropyl-6-(3-trifluoromethoxy-phenylamino)-nicotinamide], for which the EC50 lay in the range of 300 to 1000 nM and the maximum response (Emax) is more than 50%. As for `CC(C)c1cc(Nc2ccc(Br)c(Cl)c2)ncc1C(=O)NCc1ccc(F)cc1` [Example 75, 6-(4-Bromo-3-chloro-phenylamino)-N-(4-fluoro-benzyl)-4-isopropyl-nicotinamide], the EC50 was 300 to 1000 nM and the Emax was more than 50%.

Take `CC(C)c1cc(Nc2cccc(C(F)(F)F)c2)ncc1C(=O)NCc1ccc(F)cc1` [Example 14, N-(4-Fluoro-benzyl)-4-isopropyl-6-(3-trifluoromethyl-phenylamino)-nicotinamide]: the EC50 was 300 to 1000 nM and the Emax was more than 50%.

On to `Cc1cccc(Nc2cc(C(C)C)c(C(=O)NCc3ccc(F)cc3)cn2)c1` [Example 29, N-(4-Fluoro-benzyl)-4-isopropyl-6-m-tolylamino-nicotinamide], for which the EC50 lay in the range of 300 to 1000 nM and the Emax was more than 50%. For `CC(C)c1cc(Nc2cccc(Cl)c2)ncc1C(=O)NCc1ccccc1` [Example 4, N-Benzyl-6-(3-chloro-phenylamino)-4-isopropyl-nicotinamide], the EC50 was less than 300 nM and the Emax was more than 50%. For `O=C(NCc1ccnc(F)c1)c1cnc(Nc2ccc(Cl)cc2Cl)cc1C(F)(F)F` [Example 51, N-(2-Fluoro-pyridin-4-ylmethyl)-6-(2,4-dichloro-phenylamino)-4-trifluoromethyl-nicotinamide], in that order: less than 300 nM and more than 50%.

For the compound `O=C(NCc1ccc(F)cc1)c1cnc(Nc2ccc(Cl)cc2Cl)cc1C(F)(F)F` [Example 52], the EC50 was less than 300 nM and the Emax was more than 50%. Turning to `CC(C)c1cc(Nc2ccc(Br)cc2F)ncc1C(=O)NCc1ccc(F)cc1` [Example 31, 6-(4-Bromo-2-fluoro-phenylamino)-N-(4-fluoro-benzyl)-4-isopropyl-nicotinamide], the EC50 under setting [1] is 300 to 1000 nM. On the same count and under the same terms, with `CC(C)c1cc(Nc2cccc(Cl)c2)ncc1C(=O)NCc1ccc(C(N)=O)cc1` [Example 8, N-(4-Carbamoyl-benzyl)-6-(3-chloro-phenylamino)-4-isopropyl-nicotinamide] the figure was 300 to 1000 nM. As for `O=C(NCc1ccncc1)c1cnc(Nc2cccc(Cl)c2)cc1C(F)(F)F` [Example 1, 2-(3-Chlorophenylamino)-4-trifluoromethylpyridine-5-carboxylic acid (pyridin-4-ylmethyl) amide], the EC50 was less than 300 nM and the Emax is more than 50%. `O=C(NCc1ccc(F)cc1)c1cnc(Nc2cccc(Br)c2)cc1C(F)(F)F` [Example 46, N-(4-Fluoro-benzyl)-6-(3-bromo-phenylamino)-4-trifluoromethyl-nicotinamide]: the Emax is more than 50%.

The EC50 is the concentration at which the effect is half-maximal. What is called Emax is the size of the effect at its maximum, as opposed to the concentration needed.
